From ChEMBL document CHEMBL5303762, “Data for DCP probe BI-8668” (2023)

How the values were obtained:
Details in all cases: Compound concentration 10.0 uM
[1] = biological target: T1, 5-hydroxytryptamine receptor 3A (Homo sapiens) (UniProt P46098)
T1 sequence (whole entry): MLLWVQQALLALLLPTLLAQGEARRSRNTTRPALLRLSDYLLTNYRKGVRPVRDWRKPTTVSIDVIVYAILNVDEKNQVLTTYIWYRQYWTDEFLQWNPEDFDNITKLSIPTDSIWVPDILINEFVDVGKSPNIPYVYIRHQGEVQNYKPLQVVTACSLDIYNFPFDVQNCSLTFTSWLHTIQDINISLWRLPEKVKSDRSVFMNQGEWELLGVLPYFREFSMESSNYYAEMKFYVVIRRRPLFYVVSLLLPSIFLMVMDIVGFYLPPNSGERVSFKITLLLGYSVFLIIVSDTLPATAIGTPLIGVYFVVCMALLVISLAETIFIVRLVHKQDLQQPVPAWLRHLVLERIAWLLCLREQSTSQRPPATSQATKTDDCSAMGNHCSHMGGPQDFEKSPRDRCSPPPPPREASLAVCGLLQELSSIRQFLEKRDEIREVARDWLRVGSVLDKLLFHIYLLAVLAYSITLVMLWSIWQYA

[2] = biological target: Histamine H4 receptor (Homo sapiens) (UniProt Q9H3N8)
[3] = biological target: Muscarinic acetylcholine receptor M3 (Homo sapiens) (UniProt P20309)
Sequence of Muscarinic acetylcholine receptor M3 (Homo sapiens) (P20309 whole entry, looked up): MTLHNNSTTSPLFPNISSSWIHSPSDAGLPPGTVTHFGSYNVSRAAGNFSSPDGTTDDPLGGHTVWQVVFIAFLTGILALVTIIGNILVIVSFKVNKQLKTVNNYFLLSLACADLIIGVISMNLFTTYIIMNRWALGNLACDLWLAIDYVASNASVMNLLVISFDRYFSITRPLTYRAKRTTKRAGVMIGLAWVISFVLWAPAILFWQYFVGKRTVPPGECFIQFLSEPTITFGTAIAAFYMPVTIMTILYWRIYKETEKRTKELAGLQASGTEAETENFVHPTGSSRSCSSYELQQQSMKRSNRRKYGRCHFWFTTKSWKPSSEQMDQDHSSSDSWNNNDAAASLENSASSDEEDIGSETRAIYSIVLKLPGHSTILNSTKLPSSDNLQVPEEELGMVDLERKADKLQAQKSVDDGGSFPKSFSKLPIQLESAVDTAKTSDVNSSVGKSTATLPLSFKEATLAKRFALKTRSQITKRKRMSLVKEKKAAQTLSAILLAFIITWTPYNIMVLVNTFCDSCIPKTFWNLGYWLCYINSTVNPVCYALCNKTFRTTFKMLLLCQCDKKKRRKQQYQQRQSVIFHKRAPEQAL

[4] = biological target: T2, Muscarinic acetylcholine receptor M1 (Homo sapiens) (UniProt P11229)
T2 sequence (whole entry): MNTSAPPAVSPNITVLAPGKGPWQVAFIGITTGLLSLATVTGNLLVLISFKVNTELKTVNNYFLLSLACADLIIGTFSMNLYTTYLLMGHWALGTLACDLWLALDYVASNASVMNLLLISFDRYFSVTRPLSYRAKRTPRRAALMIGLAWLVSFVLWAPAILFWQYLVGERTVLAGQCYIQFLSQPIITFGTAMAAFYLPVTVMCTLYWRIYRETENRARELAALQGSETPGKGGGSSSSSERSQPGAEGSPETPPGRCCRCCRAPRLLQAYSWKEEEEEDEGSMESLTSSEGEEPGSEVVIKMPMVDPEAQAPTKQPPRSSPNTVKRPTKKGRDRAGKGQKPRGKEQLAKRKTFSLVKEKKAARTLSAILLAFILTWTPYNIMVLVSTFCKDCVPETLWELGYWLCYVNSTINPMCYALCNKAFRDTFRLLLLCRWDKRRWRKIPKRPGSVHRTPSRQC

- inhibition [1]: 8.37%
- inhibition [2]: -7.37%
- inhibition [3]: 23.3%
- inhibition [4]: 10.2%
Compound: CCn1c(CNC(=O)c2nc(Cl)cnc2N)[n+](CC)c2ccc(C(=O)N(C)CCN(C)C)cc21
